Assay [1] relates to Liver Injuries caused by Thioacetamide in Mice. Kind of assay: Inhibitory effect against liver injuries caused by thioacetamide in mice. To be noted: thioacetamide i.p., dose 50 mg/kg p.o. once, serum 24 h. It counts as in vivo, Mice (ICR, male). From the text:
The hepatoprotective effect of the compound of formula (1) was also identified by thioacetamide model(see, Masuda Yasusuke and Nakayama Nobue, Biochemical Pharmacology, 31, 17, 2713-2725, 1982; Liu Jie et al., Acta Pharmacologica Sinica, 16, 2, 97-102, 1995; Story D. L. et al., J. Tox. Environ. Health, 11, 483-501, 1983; Gomez-Lechon M. J. et al., Xenobiotica, 18, 6, 725-735, 1988) which is frequently used as an experimental model for liver injuries. This model has been established based on the phenomena that thioacetamide activated by P-450 S-oxidation inordinately increases the influx of calcium ion(Ca^++) into the liver cells, which in turn activates calcium ion-dependent phospholipase, protease and endonuclease, changes the cell frame through the calcium ion, exhausts ATP, and consequently destroys the liver cells. Thioacetamide also damages ureogenesis pathway in liver, and the metabolite of thioacetamide inhibits the transfer of RNA and makes the liver cell membranes unstable. A series of these activities results in the destruction of the liver cells, which in turn causes the increase of ALT and AST values in blood and also causes histologically the centrilobular necrosis.
(§1) The degree of liver damage in the experimental animals was determined by measuring ALT and AST values in blood(see, Biol. Pharm. Bull., 20, 4, 381-385, 1997; Toxicology and Applied Pharmacology, 95, 1-11, 1988), and the hepatoprotective activity was calculated based on the following formula(see, Planta Medica, 55, 127-132, 1989). At this time, the hepatoprotective activity can also be calculated based on the same formula by replacing ALT value with AST value. [formula]
The hepatoprotective effect of the compound of the present invention was identified according to a known procedure(see, Landon, E. J. et al., Biochemical Pharmacology, 35, 4, 697-705, 1986), and the protocol may be described in brief as follows.
(§2) Mice(ICR, male, 27˜35 g) as the test animal were allowed in a condition of temperature 22±1° C. and relative humidity 60±5%. Feed and water were provided with no restriction while light and darkness were changed at an interval of 12 hours.
The compound of the present invention was suspended in a solvent corn oil, and this suspension was administered in a dose of 10 ml/kg. Each group included 8 test animals, and the test compound was orally administered once per animal. After 1 hour from the administration of the test compound, thioacetamide solution(concentration: 90 mg/ml) in physiological saline was intraperitoneally injected in a dose of 1 ml/kg. As the control compounds, silymarin and DDB were selected.
The test animals were provided with no feed and sufficient water for 24 hours from the administration of thioacetamide. […] This blood was centrifuged to obtain sera. ALT and AST values in the sera were measured using blood chemistry analyzer(Vitalab, Selectra II, Merck). The statistical significance for the test result of each group was examined based on Student's t-test, and the result was recognized as having a statistical significance when its P value is less than 5%.

Assay [2] relates to Liver Injuries caused by Carbon Tetrachloride in Rats. Kind of assay: Inhibitory effect against liver injuries caused by carbon tetrachloride in rats. To be noted: CCl4 i.p., serum 24 h. The format is in vivo, Rats (SD, male).
Description: (§3) The carbon tetrachloride model(see, Philippe letteron et al., Biochemical Pharmacology, 39, 12, 2027-2034, 1990; Tips, 10, 1989; Kyoichi Kagawa et al., Japan J. Pharmacol., 42, 19-26, 1986; K. T. Liu and P. Lesca, Chem. Biol. Interactions, 41, 39-47, 1982; Richard O. et al., J. Biological Chemistry, 236, 2, 1961) is used most generally. This model has been established based on the internal phenomena that carbon tetrachloride is converted by cytochrome P-450 to a toxic free radical trichloromethyl(CCl3.), this radical is strongly bound to a thiol group of membrane protein on microsome of liver to form a lipid radical, which is then converted to a peroxy radical in the presence of oxygen to facilitate the peroxidation reaction of membrane lipid. That is, carbon tetrachloride suppresses protein biosynthesis in the liver, induces the increase of ALT and AST values in blood, and further causes histologically the centrilobular necrosis of the liver.
as §1
(§4) The hepatoprotective effect of the compound of the present invention was identified according to a known procedure(see, Philippe letteron et al., Biochemical Pharmacology, 39, 12, 2027-2034, 1990), and the protocol may be described in brief as follows.
(§5) Rats(SD, male, 180˜200 g) and mice(ICR, male, 27-35 g) used in the test were allowed in a condition of temperature 22±1° C. and relative humidity 60±5%. Feed and water were provided with no restriction while light and darkness were changed at an interval of 12 hours.
(§6) […] […] Each group included 8 test animals, and the test compound was orally administered once per animal. After 30 minutes(rat) or 1 hour(mouse) from the administration of the test compound, 10% carbon tetrachloride in corn oil solution was intraperitoneally injected in doses of 2 ml/kg in rats and 0.15 ml/kg in mice. As the control compounds, silymarin and DDB were selected.
(§7) The test animals were provided with no feed and sufficient water for 24 hours from the administration of carbon tetrachloride. […] This blood was centrifuged to obtain sera. ALT and AST values in the sera were measured using blood chemistry analyzer(Vitalab, Selectra II, Merck). The statistical significance for the test result of each group was examined based on Student's t-test, and the result was recognized as having a statistical significance when its P value is less than 5%.

The test system of assay [3] is Liver Injuries caused by Carbon Tetrachloride in Mice. Kind of assay: Inhibitory effect against liver injuries caused by carbon tetrachloride in mice. The format is in vivo, mice (ICR, male). To be noted: CCl4 i.p., serum 24 h.
Description: as §3, §1, §4, §5, §6, §7

Assay [4] relates to Fulminant Liver Injuries caused by D-galactosamine/lipopolysaccharide in Mice. In words: Inhibitory effect against fulminant liver injuries caused by D-galactosamine/lipopolysaccharide in mice (survival). The format is in vivo, Mice (ICR, male). To be noted: D-galactosamine 800 mg/kg + lipopolysaccharide 10 μg/kg i.p., dose 50 mg/kg oral once, observed 24 hours.
Description: Further, the D-galactosamine/lipopolysaccharide model(see, Chris Galanos et al., Proc. Natl. Acad. Sci. USA, 76, 11, 5939-5943, 1979; Koji Hase et al., Biol. Pharm. Bull., 20, 4, 381-385, 1997; Junichi Nagakawa et al., The Journal of Pharmacology and Experimental Therapeutics, 264, 1, 1992; Nolan J. D., Hepatology, 1, 458-465, 1981; Wendel A., Methods Enzymol., 186, 675-680, 1990) which is also used in the present invention for the identification of hepatoprotective effect is based on the phenomena that liver injuries are caused by immune responses in mouse. It has been reported that such kind of liver injuries are caused not by direct tissue lesions due to the chemicals but by secretion of tumor necrosis factor(TNF)-α, reactive oxygen, etc.(see, Hishinuma I. et al., Hepatology, 12, 1187-1191, 1990, Hase K. et al., Phytother. Res., 10, 387-392, 1996). Here, D-galactosamine supresses protein biosynthesis and as well highly increases the sensitivity of the liver cells for lipopolysaccharide by reducing uridine nucleotide.
The hepatoprotective effect of the compound of the present invention was identified according to a known procedure(see, Koji Hase et al., Biol. Pharm. Bull., 20, 4, 381-385, 1997), and the protocol may be described in brief as follows.
as §2
The compound of the present invention was suspended in a solvent corn oil, and this suspension was administered in a dose of 10 ml/kg. Each group included 10 test animals, and the test compound was orally administered once per animal. After 1 hour from the administration of the test compound, D-galactosamine and lipopolysaccharide each of which dissolved in physiological saline were intraperitoneally injected at the same time in doses of 800 mg/kg and 10 μg/kg, respectively. As the control compounds, SY-640[N-methyl-N-(3,4-methylenedioxyphenacyl)acetamide; EP0350251], silymarin and DDB were selected.
The statistical significance for the test result of each group was examined based on Student's t-test, and the result was recognized as having a statistical significance when its P value is less than 5%.

In the case of `C(=N\OCc1ccccn1)/c1ccc2c(c1)OCO2` [Compound 9, 1-[(2-pyridyl)methoxy]-1-aza-2-benzo[3,4-d]1,3-dioxolan-5-ylethene], the “Inhibitory Effect against Liver Injuries (%) ALT” value in assay [1] is recorded as 29%; in assay [2] (dose 1.9 mg/kg p.o. once) it was 61%; in assay [2] (dose 5.6 mg/kg p.o. once), 60%; in assay [2] (dose 16.7 mg/kg p.o. once), 56%; in assay [2] (dose 50 mg/kg p.o. once) it was 75%; in assay [3] (dose 1.9 mg/kg p.o. once), 64%. Besides, the “Inhibitory Effect against Liver Injuries (%) ALT” value in assay [3] (dose 5.6 mg/kg p.o. once) stood at 64%; in assay [3] (dose 16.7 mg/kg p.o. once) it was 87%; in assay [3] (dose 50 mg/kg p.o. once), 98%. The “Survival Rate (%)” value in assay [4] is given as 90%.

Regarding `CC(=O)N(C)CC(=O)c1ccc2c(c1)OCO2` [SY-640, N-methyl-N-(3,4-methylenedioxyphenacyl)acetamide, reference compound], the “Survival Rate (%)” value in assay [4] is 90%.
